In US12186307B2, “Methods of treating epilepsy” (YALE UNIVERSITY, priority 2019, dated 2025):
Several values for one entry are separate records, joined by “and”; a condition that tells them apart may be missing. Equal entries are not always repeated. Entries after “also recorded” stand apart in the source; their conditions may differ.

What was measured:
[1] = Body weight during treatment of Rheb^CA mice; format: in vivo, CD-1 mice; settings: 12 mg/kg i.p. twice daily, P8-P60
Procedure: (§1) All experiments were performed on CD-1 mice (Charles River) of either sex.
(§2) PTI-125 was dissolved in saline at a concentration of 2.4 mg/ml. Mice received two intraperitoneal injections of 6 or 12 mg/kg PTI-125 every day. Saline was used as vehicle treatment.

[2] = target: aberrant FLNA in Alzheimer's disease (Homo sapiens, UniProt P21333); settings: reported; cited from earlier work
Chain of aberrant FLNA in Alzheimer's disease (P21333 whole entry): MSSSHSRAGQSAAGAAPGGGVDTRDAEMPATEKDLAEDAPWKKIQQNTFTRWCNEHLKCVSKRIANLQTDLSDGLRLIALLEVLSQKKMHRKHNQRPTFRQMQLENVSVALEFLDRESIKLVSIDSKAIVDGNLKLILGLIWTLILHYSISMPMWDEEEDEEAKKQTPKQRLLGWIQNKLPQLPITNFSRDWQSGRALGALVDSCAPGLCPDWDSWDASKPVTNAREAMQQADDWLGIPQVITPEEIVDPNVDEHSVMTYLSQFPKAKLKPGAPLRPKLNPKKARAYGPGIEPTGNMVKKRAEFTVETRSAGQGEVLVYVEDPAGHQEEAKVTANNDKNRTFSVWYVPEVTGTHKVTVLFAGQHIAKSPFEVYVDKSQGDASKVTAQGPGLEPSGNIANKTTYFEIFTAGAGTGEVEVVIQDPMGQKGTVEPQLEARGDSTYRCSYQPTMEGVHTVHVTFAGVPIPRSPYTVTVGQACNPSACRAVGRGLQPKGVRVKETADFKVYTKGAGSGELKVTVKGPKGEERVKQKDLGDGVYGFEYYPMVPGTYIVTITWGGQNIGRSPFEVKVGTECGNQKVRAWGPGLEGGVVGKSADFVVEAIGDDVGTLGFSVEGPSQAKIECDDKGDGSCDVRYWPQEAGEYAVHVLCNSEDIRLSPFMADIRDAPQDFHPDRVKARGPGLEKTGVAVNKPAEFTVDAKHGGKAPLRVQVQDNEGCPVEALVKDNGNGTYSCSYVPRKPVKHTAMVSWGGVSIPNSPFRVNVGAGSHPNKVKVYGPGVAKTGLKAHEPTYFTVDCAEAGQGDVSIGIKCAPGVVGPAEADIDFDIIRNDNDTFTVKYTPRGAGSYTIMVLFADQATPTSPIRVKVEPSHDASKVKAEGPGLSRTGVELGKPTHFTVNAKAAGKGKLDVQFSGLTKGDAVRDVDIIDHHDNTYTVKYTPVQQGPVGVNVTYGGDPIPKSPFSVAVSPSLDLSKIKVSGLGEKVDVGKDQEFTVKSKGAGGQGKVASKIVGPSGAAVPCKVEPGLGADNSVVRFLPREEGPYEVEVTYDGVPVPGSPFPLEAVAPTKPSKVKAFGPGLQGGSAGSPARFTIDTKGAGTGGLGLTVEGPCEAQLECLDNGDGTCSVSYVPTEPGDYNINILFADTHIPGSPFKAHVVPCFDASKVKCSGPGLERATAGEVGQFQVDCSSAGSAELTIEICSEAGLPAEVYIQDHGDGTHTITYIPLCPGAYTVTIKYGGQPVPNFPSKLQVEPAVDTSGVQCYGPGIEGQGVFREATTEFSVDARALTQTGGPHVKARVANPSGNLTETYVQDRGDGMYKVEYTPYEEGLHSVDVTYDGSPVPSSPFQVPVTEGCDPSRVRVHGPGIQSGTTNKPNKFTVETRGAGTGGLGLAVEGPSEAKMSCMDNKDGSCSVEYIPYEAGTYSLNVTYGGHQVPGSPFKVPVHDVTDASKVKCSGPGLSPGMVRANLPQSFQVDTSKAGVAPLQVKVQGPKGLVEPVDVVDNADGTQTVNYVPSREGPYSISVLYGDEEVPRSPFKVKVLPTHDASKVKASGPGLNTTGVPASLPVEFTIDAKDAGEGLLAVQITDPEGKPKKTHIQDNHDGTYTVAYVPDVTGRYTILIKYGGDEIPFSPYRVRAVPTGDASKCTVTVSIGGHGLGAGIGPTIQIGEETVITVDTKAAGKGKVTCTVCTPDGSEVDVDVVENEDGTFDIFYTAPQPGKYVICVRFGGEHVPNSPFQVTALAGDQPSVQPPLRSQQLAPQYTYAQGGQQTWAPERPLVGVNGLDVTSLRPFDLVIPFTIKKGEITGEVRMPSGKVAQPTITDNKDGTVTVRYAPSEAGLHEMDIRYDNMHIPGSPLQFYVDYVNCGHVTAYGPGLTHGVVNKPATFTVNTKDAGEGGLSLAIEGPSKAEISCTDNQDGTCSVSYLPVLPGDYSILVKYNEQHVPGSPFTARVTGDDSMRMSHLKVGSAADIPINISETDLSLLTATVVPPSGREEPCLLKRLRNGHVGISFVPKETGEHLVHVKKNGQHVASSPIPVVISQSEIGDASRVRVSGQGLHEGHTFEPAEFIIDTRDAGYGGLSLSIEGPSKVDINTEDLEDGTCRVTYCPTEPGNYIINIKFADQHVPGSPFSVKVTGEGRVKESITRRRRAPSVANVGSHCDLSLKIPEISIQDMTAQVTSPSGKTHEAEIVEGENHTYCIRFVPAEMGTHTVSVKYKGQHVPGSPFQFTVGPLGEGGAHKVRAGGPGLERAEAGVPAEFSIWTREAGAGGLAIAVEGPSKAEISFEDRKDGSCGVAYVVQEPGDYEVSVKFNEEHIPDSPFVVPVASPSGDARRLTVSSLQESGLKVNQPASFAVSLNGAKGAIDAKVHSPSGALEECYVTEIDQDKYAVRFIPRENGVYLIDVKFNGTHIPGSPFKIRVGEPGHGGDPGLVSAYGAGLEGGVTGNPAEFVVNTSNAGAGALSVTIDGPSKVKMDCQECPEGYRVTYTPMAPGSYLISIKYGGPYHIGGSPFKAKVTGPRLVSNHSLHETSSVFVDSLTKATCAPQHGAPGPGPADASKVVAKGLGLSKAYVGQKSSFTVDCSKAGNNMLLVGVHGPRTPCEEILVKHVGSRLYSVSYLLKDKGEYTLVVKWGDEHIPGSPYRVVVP

[3] = tested on: Rheb^CA-expressing neurons; assay: Cell placement, soma size and dendrite (Sholl) analysis in Rheb^CA mouse model of FCM; format: in vivo, CD-1 mice
Procedure: as §1
(§3) Each DNA plasmid was diluted in sterile PBS (pH 7.4). Timed pregnant mice (embryonic day, E15) were anesthetized with isoflurane. After exposing the uterine horns, ˜1.5 μl of DNA solution, containing 0.1% fast green added as an injection tracer, was injected into the lateral ventricle via a pulled glass capillary. PBS-soaked tweezer-type electrodes (model 520, BTX) were then positioned on the head of the fetuses across the uterine wall and 6 square-pulses at […] and 50 ms duration every 950 ms were applied using a pulse generator (ECM830, BTX). At birth, mice were prescreened for successful electroporation by detecting the expression of fluorescent protein markers on a fluorescence-enabled stereo microscope (SZX16, Olympus). Morphology and seizure data in different conditions (Flna vs Luciferase shRNA or vehicle vs PTI-125 treatment) were compared between littermate mice. For most experiments, mice received unilateral electroporation, except for experiments in FIG. 4F (P8-P65 PTI-125 treatment on seizures) for which mice received bilateral electroporation.
(§4) Mice: Mice were transcardially perfused with PBS followed by 4% paraformaldehyde. Brains were then dissected and post-fixed in 4% paraformaldehyde for 24 hours before being transferred to a solution of 3% agarose solution in PBS. These were then sectioned coronally on a vibratome at a thickness of 50 μm. For immunofluorescence, free-floating sections were incubated for 1 hour in a blocking solution (2% bovine serum albumin and 0.1% Triton-X in PBS) at room temperature and then incubated with primary antibodies (Table 5) overnight at 4° C. Sections were washed with PBS+0.05% Tween 20 and then placed in blocking solution containing secondary antibodies for 1 hour at room temperature. All images were taken using an FV1000 confocal microscope (Olympus).
(§5) Quantification of the number of layer 2/3 neurons in the anterior cingulate cortex, the boundary between layer 2/3 and layer 5 was determined using ER81 staining, which labels layer 5 (FIGS. 14A-14B)Soma size was quantified by outlining the soma of GFP+ cells and measuring the area using ImageJ. Intensity of phospho-S6 and FLNA in sections was quantified by outlining somas of cells and measuring the mean gray value. Then, the values in electroporated cells (in mice) or SMI-311-positive cells (in humans) were normalized to those in non-electroporated cells or unstained cells surrounding electroporated cells to control for variability of staining between sections.
To analyze neuronal morphology and, in particular dendritic trees, only a few neurons per section were labeled using a Cre-based strategy as previously reported. More specifically, an inducible DsRed2 vector (pCAG-LoxP-stop-LoxP-DsRed2, pCALNL-DsRed2) combined with a Cre vector (pCAG-Cre) was used at very low concentration (1 ng/μl). The Cre plasmid led to DsRed expression in only 3-5 neurons per slice allowing to cleanly analyze the dendritic morphology of individual neurons (FIGS. 15A-15C)Images of DsRed-expressing basal dendrites were acquired in coronal sections using a Fluoview 1000 confocal microscope with a 20× objective. Basal dendrites were traced with simple neurite tracer software (FIJI and Neuronstudio). Sholl analyses were carried out using the number of intersections in 10-μm-increment concentric circles as a measure of morphological complexity. Z stacks from three different square fields of view were taken from three different sections. Analysis was performed blindly with more than four animals and more than 20 cells per condition (see Table 3 for actual n number).
as §2

[4] = tested on: phospho-S6; assay: Phospho-S6 (read-out of mTORC1 activity) immunostaining / immunoblot in mouse cortex; format: in vivo, CD-1 mice
Procedure: as §4, §5
Human and mouse samples were lysed in RIPA buffer (Thermo fisher, #89900) with protease/phosphatase inhibitor cocktail (Cell Signaling Technology, #5872), 5 mM EDTA, and 20 units/ml DNase I (Roche). All lysates were run on Tris-glycine gels (Bio-Rad, #456-1086 for mouse samples and #456-1046 for human samples). Proteins were transferred to PVDF and blocked in 5% milk and incubated with primary antibodies (concentrations of primary antibody are listed in Table 5). HRP-conjugated anti-rabbit or anti-mouse were used as secondary antibodies. Phosphorylated and total proteins were blotted on the same membrane after stripping (Thermo fisher, #21059). […]

[5] = target: native FLNA (Homo sapiens, UniProt P21333); settings: reported; cited from earlier work
Chain of native FLNA (P21333 whole entry, species assumed): as the sequence (P21333 whole entry) above

[6] = tested on: Rheb^CA-expressing mice; assay: Video-EEG recording of seizures in Rheb^CA-expressing mice; format: in vivo, CD-1 mice
Procedure: as §1
as §3, with “Olympus).” for “Olympus). Morphology and seizure data in different conditions (Flna vs Luciferase shRNA or vehicle vs PTI-125 treatment) were compared between littermate mice. For most experiments, mice received unilateral electroporation, except for experiments in FIG. 4F (P8-P65 PTI-125 treatment on seizures) for which mice received bilateral electroporation.”
Mice were anesthetized with isoflurane and positioned on a stereotaxic frame using ear bars. A rostro-caudal midline incision was made in the skin to expose the skull surface. Four pilot holes (two bilateral holes 1 mm anterior to bregma and two bilateral holes 5 mm posterior to bregma, each 1.5 mm lateral to sagittal suture), was tapped through the skull to dura using a microdrill (Roboz Surgical Instrument, #RS6300). […] Silver conductive paint (Electron Microscopy Science) was applied around the screw threads to ensure a solid connection with the headmount. The entire implant was insulated using dental acrylic. Mice were allowed to recover in their home cage for seven days before video-EEG monitoring.
Mice were housed in individual recording chambers in a light-, temperature- and humidity-controlled room during video-EEG monitoring. Mice were freely moving inside the chambers and had ad libitum access to food and water. Synchronous video-EEG recording was acquired using a three-channel EEG tethered system (Pinnacle Technology, cat. no. 8200-K1-iSE3) and Sirenia Acquisition software (Pinnacle Technology). Mice were continuously recorded 24 hours/day for 5-6 consecutive days or 31-45 days.
Seizure frequency and duration were analyzed using Sirenia Seizure Basic software (Pinnacle Technology). All analyses were performed blinded to experimental groups by at least two investigators. The entire EEG traces were manually reviewed for the occurrence of seizures, defined as a sudden onset of high amplitude activity with a characteristic pattern of progressive frequency and amplitude changes over the course of the event lasting≥10 sec. Seizure onset was defined by high amplitude firing>2× baseline and seizure termination was defined by a return to baseline activity. Video data were inspected for behavioral correlates including myoclonic jerks, tonic-clonic activities, convulsions, and loss of postural control (rearing and falling) and were used as secondary verification of seizures. For each individual animal, mean number of seizures per day was obtained by dividing the total number of seizures by the total number of recording hours and multiplied by 24.
Saline was used as vehicle treatment.

[7] = tested on: seizures in individuals with TSC or FCDII; settings: clinical trial, cited from earlier work
[8] = tested on: Neuro2a cells; assay: S6 phosphorylation immunoblot in transfected Neuro2a cells; format: cell-based; settings: in vitro, Neuro2a cells transfected with shRNA
Procedure: Neuro2a cells were grown at 37° C. with 5% CO2 in a complete media consisting of high glucose DMEM (Gibco, #11965-092), 5% heat-inactivated fetal bovine serum (Gibco, #16140071), and 1% penicillin-streptomycin. Cells were plated in 12 well culture plates (Corning, #0720082) and transfected when they reached ˜70% confluence. Transfection was done using PolyJet transfection reagent (Signagen, SL100688) according to the manufacturer's instructions. Cells were lysed 72 hours after transfection for all experiments.
Human and mouse samples were lysed in RIPA buffer (Thermo fisher, #89900) with protease/phosphatase inhibitor cocktail (Cell Signaling Technology, #5872), 5 mM EDTA, and 20 units/ml DNase I (Roche). All lysates were run on Tris-glycine gels (Bio-Rad, #456-1086 for mouse samples and #456-1046 for human samples). Proteins were transferred to PVDF and blocked in 5% milk and incubated with primary antibodies (concentrations of primary antibody are listed in Table 5). HRP-conjugated anti-rabbit or anti-mouse were used as secondary antibodies. Phosphorylated and total proteins were blotted on the same membrane after stripping (Thermo fisher, #21059). All density measurements were performed using NIH Image J software. In the case where cross-blot normalization was required a reference sample was loaded on each gel to account for inter-gel variability (FIGS. 11A-11B).

[9] = 6 mg/kg i.p. twice daily, P8 to P28
[10] = 12 mg/kg i.p. twice daily, P8 to P28
[11] = treatment after seizure onset, P29 to P54

**Q.** What does the source list for CN1CCC2(CC1)NCC(=O)N2Cc1ccccc1 [PTI-125]?
**A.** body weight [1]: did not affect; affinity for aberrant FLNA in Alzheimer's disease [2]: femtomolar; dendritic dysmorphogenesis [3, 9]: partially rescued; neuronal soma size [3, 9]: partially rescued; dendritic dysmorphogenesis [3, 10]: partially rescued; neuronal soma size [3, 10]: partially rescued; dendritic dysmorphogenesis [3, 11]: partially, but significantly, rescued; increased soma size [3, 11]: partially, but significantly, rescued; cell misplacement (neuronal placement) ([3]; treatment starting at P8, 12 mg/kg, brain sections from recorded mice): not affected; also recorded: did not rescue; phospho-S6 expression in the cortex ([4]; nonelectroporated mice, 12 mg/kg): not affected; phospho-S6 intensity in brain sections ([4]; recorded Rheb^CA mice, 12 mg/kg P8-P65): not affected; affinity for native FLNA [5]: picomolar; seizure frequency ([6]; 12 mg/kg i.p. twice daily P8-P65, recorded P61 to P66, vehicle 5.1): 1.4 seizures/day; Number of mice without/with seizures per condition ([6]; FIG. 6A, all treatments combined, vehicle 3/29): 11/32; overall reduction in seizure frequency compared to vehicle-treated littermates ([6]; all PTI-125 treatments combined (n=32 vs n=27)): 66%; seizure-free mice ([6]; all PTI-125 treatments combined, vehicle 11%): 35%; lowering of seizure frequency compared to vehicle-treated mice ([6]; treatment P29 to P54, recorded P50-P54): 69% and 67%; seizure frequency ([6]; treatment P29 to P54, recorded P50-P54, vehicle 2.7): 0.84 seizures/day; reduction of seizure frequency ([6]; treatment prior to seizure onset, 12 mg/kg P8-P65, vs vehicle): 73%; reduction in seizure frequency prior to vs after treatment in the same mice ([6]; young adult mice (P61-P106), 33-day treatment): 60%; change of seizure frequency over time ([6]; young adult mice switched from vehicle to PTI-125 after 12 days of recordings, 20-day treatment): did not have the increase in seizure frequency observed in the vehicle group; mean seizure frequency ([6]; young adult mice, after 33-day treatment, 3.9 prior to treatment): 1.6 seizures/day

**Q.** With CO[C@H]1C[C@@H]2CC[C@@H](C)[C@@](O)(O2)C(=O)C(=O)N2CCCC[C@H]2C(=O)O[C@H]([C@H](C)C[C@@H]2CC[C@@H](OCCO)[C@H](OC)C2)CC(=O)[C@H](C)/C=C(\C)[C@@H](O)[C@@H](OC)C(=O)[C@H](C)C[C@H](C)/C=C/C=C/C=C/1C [everolimus] as the compound, how does the “patients with reduced seizure frequency” value ([7]; highest dose) read?
**A.** 40%

**Q.** And the “patients who saw no improvements” value [7]?
**A.** 60%

**Q.** And the side-effects [7]?
**A.** had side-effects

**Q.** For “Flna shRNA: short hairpin RNA against Flna, expressed from plasmid; sequence 5′ CCTATGAAGCTGGAACCTATA 3′ (expressed from plasmid pCGLH)”, which “Rheb^CA-induced increased S6 phosphorylation” value [8] is on record?
**A.** did not reduce

**Q.** What about the total dendritic length ([3]; Rheb^CA neurons co-expressing shRNA by E15 IUE, P28, 194% with control shRNA) of the same compound?
**A.** 130 % of control

**Q.** What about the soma size ([3]; Rheb^CA neurons co-expressing shRNA by E15 IUE, P28, 372% with control shRNA) of the same compound?
**A.** 250 % of control

**Q.** What about the “misplaced cells (neuronal misplacement)” value ([3]; Rheb^CA neurons co-expressing shRNA by E15 IUE, analysed at P28, 50% with control shRNA, 2% in control) of the same compound?
**A.** 23%

**Q.** And the “increased phospho-S6 intensity in vivo” value ([4]; GFP+ Rheb^CA-expressing neurons in EEG-recorded mice)?
**A.** did not prevent

**Q.** And the death of mice ([6]; out of 10 mice, 4 out of 16 died in the control group)?
**A.** no mice died

**Q.** What about the “lowering of seizure frequency compared to luciferase shRNA” value ([6]; video-EEG for 5 days starting at P61) of the same compound?
**A.** 83%

**Q.** And the mean seizure frequency ([6]; video-EEG for 5 days starting at P61, 12.6 with luciferase shRNA)?
**A.** 2.2 seizures/day
